# In ChEMBL document CHEMBL3399932, “Synthesis of new N-benzylpiperidine derivatives as cholinesterase inhibitors with β-amyloid anti-aggregation properties and beneficial effects on memory in vivo” (Bioorg Med Chem, 2015):
# pIC50: −log10 of the molar value. Activity calls are given as the source filed them. The calls are words filed in the database; no cut-off is given here.
# Columns and labels:
# [1] = target: Cholinesterase (Equus caballus, UniProt P81908)
# [2] = target: Acetylcholinesterase (Electrophorus electricus, UniProt O42275)
# Acetylcholinesterase, sequence (O42275 whole entry): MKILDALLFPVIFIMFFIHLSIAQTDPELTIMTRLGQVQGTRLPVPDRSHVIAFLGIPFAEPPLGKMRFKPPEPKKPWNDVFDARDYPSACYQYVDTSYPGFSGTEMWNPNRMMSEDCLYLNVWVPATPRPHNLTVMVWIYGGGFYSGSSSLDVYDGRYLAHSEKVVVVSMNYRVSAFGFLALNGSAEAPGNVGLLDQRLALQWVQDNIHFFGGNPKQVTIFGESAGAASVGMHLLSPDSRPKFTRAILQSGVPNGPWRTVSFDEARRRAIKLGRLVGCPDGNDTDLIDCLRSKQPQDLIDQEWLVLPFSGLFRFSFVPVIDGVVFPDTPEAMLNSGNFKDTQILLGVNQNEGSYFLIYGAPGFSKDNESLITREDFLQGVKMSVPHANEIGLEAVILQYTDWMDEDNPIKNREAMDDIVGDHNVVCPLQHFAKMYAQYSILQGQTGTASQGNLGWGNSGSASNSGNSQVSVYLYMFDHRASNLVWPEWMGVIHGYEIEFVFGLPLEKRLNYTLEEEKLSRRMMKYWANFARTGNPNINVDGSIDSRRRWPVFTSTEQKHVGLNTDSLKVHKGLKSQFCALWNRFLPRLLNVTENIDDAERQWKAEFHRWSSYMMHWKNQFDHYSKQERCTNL
# [3] = target: Acetylcholinesterase (Electrophorus electricus) (UniProt O42275); assay: Inhibition of electric eel AChE using acetylthiocholine iodide as substrate preincubated at 10^-4 mol/L for 5 mins by Ellman method
# Acetylcholinesterase (Electrophorus electricus), sequence (O42275 24-633 limits assumed): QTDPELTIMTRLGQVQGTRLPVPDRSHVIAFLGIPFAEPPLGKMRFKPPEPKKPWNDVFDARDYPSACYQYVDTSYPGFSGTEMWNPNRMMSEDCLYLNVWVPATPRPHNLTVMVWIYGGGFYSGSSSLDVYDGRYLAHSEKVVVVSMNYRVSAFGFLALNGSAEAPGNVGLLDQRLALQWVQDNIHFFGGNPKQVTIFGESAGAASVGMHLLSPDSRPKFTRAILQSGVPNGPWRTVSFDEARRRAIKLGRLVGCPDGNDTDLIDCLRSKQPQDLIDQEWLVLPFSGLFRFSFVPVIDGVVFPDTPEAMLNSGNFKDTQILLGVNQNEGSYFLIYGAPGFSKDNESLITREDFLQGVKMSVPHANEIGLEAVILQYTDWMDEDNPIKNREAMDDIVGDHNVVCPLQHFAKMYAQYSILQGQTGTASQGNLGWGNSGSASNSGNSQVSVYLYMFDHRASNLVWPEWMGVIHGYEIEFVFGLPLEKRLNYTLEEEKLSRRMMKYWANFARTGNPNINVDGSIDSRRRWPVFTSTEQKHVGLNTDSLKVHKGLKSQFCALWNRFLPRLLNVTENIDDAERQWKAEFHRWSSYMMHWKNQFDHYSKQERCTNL
# [4] = target: Acetylcholinesterase (Electrophorus electricus) (UniProt O42275); conditions: 5 to 10 uM
# [5] = target: Cholinesterase (Equus caballus) (UniProt P81908); assay: Inhibition of horse serum BChE using butyrylthiocholine iodide as substrate preincubated at 0.5 to 1 uM for 5 mins by Lineweaver-Burk plot method
# Cholinesterase (Equus caballus), sequence (P81908 whole entry): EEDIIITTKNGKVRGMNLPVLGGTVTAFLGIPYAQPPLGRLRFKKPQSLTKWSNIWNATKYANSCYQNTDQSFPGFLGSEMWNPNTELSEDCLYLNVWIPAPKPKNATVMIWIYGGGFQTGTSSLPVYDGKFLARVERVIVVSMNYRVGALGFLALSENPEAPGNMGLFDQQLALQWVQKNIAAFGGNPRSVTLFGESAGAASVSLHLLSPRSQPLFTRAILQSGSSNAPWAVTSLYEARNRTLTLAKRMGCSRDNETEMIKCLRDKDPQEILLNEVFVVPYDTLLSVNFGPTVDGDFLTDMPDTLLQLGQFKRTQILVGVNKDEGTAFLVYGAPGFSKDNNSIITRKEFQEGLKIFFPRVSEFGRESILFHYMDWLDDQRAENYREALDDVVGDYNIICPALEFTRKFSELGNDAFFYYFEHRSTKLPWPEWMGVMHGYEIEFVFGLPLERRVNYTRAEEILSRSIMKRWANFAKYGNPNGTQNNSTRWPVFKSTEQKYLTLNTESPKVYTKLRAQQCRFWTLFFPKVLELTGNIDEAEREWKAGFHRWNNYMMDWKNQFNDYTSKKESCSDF
# [6] = target: Amyloid-beta precursor protein (Homo sapiens) (UniProt P05067); assay: Inhibition of self-induced beta-amyloid (1 to 42) (unknown origin) aggregation by thioflavin-T assay
# Amyloid-beta precursor protein (Homo sapiens), sequence (P05067 whole entry): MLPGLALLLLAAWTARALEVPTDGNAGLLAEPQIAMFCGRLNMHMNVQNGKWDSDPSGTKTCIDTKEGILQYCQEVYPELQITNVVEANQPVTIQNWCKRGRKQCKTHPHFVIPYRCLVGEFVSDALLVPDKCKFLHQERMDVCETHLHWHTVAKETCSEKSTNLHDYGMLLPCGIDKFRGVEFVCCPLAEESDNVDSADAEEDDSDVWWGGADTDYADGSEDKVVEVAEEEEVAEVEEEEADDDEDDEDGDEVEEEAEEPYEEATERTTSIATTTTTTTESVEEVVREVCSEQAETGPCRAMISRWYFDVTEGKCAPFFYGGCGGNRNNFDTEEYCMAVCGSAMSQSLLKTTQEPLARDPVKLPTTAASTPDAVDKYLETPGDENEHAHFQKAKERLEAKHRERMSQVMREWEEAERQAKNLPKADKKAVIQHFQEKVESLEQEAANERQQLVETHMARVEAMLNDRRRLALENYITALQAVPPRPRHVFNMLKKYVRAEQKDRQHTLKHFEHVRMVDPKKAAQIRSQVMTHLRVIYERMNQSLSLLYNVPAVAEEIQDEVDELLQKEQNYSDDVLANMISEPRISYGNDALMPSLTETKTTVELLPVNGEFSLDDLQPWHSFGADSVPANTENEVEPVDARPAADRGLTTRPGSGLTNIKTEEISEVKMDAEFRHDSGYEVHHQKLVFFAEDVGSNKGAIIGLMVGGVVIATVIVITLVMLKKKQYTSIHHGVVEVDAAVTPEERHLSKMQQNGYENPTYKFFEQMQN
# [7] = system: Mus musculus; assay: Toxicity in albino Swiss CD-1 mouse assessed as decrease in impairment of motor coordination at 24 rpm at 30 mg/kg, ip administered 1 hr before test by rotarod test; assay type: organism-based; set-up: dose 30 mg/kg, route intraperitoneal; scale not given: the % may be the effect or the level left; conditions: in vivo
# [8] = system: Mus musculus; assay: Sedative activity in albino Swiss CD-1 mouse assessed as decrease in spontaneous locomotor activity at 30 mg/kg, ip administered 1 hr before test measured at 18 to 30 mins of test; assay type: ADME, organism-based; set-up: dose 30 mg/kg, route intraperitoneal; conditions: in vivo
# [9] = system: Mus musculus; assay: (§1) Effect on scopolamine-induced cognitive dysfunction in albino Swiss CD-1 mouse assessed as reduction in step-through latency time at 5 to 30 mg/kg, ip administered 1 hr before the acquisition trial by passive avoidance test; assay type: functional, organism-based
# [10] = system: Mus musculus; assay: Toxicity in albino Swiss CD-1 mouse assessed as decrease in impairment of motor coordination at 6 to 18 rpm at 30 to 100 mg/kg, ip administered 1 hr before test by rotarod test; assay type: organism-based; set-up: dose 30-100 mg/kg, route intraperitoneal; conditions: in vivo
# [11] = system: Mus musculus; assay: Toxicity in albino Swiss CD-1 mouse assessed as decrease in impairment of motor coordination at 24 rpm at 100 mg/kg, ip administered 1 hr before test by rotarod test; assay type: organism-based; set-up: dose 100 mg/kg, route intraperitoneal; conditions: in vivo
# [12] = system: Mus musculus; assay: as §1, with “time during retention trial” for “time”, “trial measured 24 hrs after acquisition trial over 180 seconds” for “trial”; assay type: functional, organism-based
# [13] = system: Mus musculus; assay: Sedative activity in albino Swiss CD-1 mouse assessed as decrease in spontaneous locomotor activity at 30 mg/kg, ip administered 1 hr before test measured up to 6 mins of test; assay type: ADME, organism-based; set-up: dose 30 mg/kg, route intraperitoneal; conditions: in vivo
# [14] = target: Cholinesterase (Equus caballus) (UniProt P81908); assay: Inhibition of horse serum BChE using butyrylthiocholine iodide as substrate preincubated at 10^-4 mol/L for 5 mins by Ellman method
# [15] = PAMPA, 2 h
# Cholinesterase, sequence (P81908 whole entry): as the sequence (P81908 whole entry) above
Structure (SMILES),pIC50 [1],pIC50 [2],further results
O=C1c2ccccc2C(=O)N1CCCNC1CCN(Cc2cccc(Cl)c2)CC1,5.34,4.17,–
COc1ccc(CN2CCC(NCCCCCCn3ccc4ccccc43)CC2)cc1,6.28,–,inhibition [3]: < 60%
Fc1ccccc1CN1CCC(NCCCCCCn2ccc3ccccc32)CC1,5.47,4.38,–
Oc1ccc(CN2CCC(NCCCCCCCCn3ccc4ccccc43)CC2)cc1,5.88,–,inhibition [3]: < 60%
O=C1c2ccccc2C(=O)N1CCCCCCCCNC1CCN(Cc2ccccc2)CC1,5.70,4.75,–
COc1ccc(CN2CCC(NCCCN3C(=O)c4ccccc4C3=O)CC2)cc1,4.57,–,inhibition [3]: < 60%
COc1ccc(CN2CCC(NCCCCCCN3C(=O)c4ccccc4C3=O)CC2)cc1,5.13,–,inhibition [3]: < 60%
COc1ccc(CN2CCC(NCCCCCCCCN3C(=O)c4ccccc4C3=O)CC2)cc1,5.25,4.36,–
Clc1cccc(CN2CCC(NCCCCCCCCn3ccc4ccccc43)CC2)c1,6.12,4.66,–
O=C1c2ccccc2C(=O)N1CCCCCCNC1CCN(Cc2cccc(Cl)c2)CC1,5.56,4.26,–
O=C1c2ccccc2C(=O)N1CCCCCCNC1CCN(Cc2ccc(O)cc2)CC1,5.63,4.53,–
O=C1c2ccccc2C(=O)N1CCCCCCNC1CCN(Cc2ccccc2F)CC1,5.40,4.07,–
O=C1c2ccccc2C(=O)N1CCCNC1CCN(Cc2ccc(O)cc2)CC1,5.03,5.34,inhibition [4]: Active; inhibition [5]: Active
O=C1c2ccccc2C(=O)N1CCCCCCCCNC1CCN(Cc2cccc(Cl)c2)CC1,6.14,–,inhibition [6]: Dose-dependent effect; Activity [7]: 38%; Activity [8]: Toxic; Activity [9]: Active; Activity [10]: Non-toxic; Activity [11]: Toxic; Activity [12]: Active; Activity [13]: Non-toxic; inhibition [3]: < 60%
O=C1c2ccccc2C(=O)N1CCCCCCCCNC1CCN(Cc2ccc(O)cc2)CC1,6.09,4.63,–
O=C1c2ccccc2C(=O)N1CCCNC1CCN(Cc2ccccc2)CC1,4.29,5.09,–
c1ccc(CN2CCC(NCCCCCCn3ccc4ccccc43)CC2)cc1,4.82,8.00,–
c1ccc(CN2CCC(NCCCCCCCCn3ccc4ccccc43)CC2)cc1,5.97,4.15,–
Fc1ccccc1CN1CCC(NCCCCCCCCn2ccc3ccccc32)CC1,6.03,4.53,–
c1ccc(CN2CCC(NCCCn3ccc4ccccc43)CC2)cc1,8.70,–,inhibition [3]: < 60%
Clc1cccc(CN2CCC(NCCCCCCn3ccc4ccccc43)CC2)c1,6.08,4.27,–
O=C1c2ccccc2C(=O)N1CCCCCCCCNC1CCN(Cc2ccccc2F)CC1,5.73,4.36,–
O=C1c2ccccc2C(=O)N1CCCCCNC1CCN(Cc2ccccc2)CC1,–,4.16,inhibition [14]: < 60%
CC(=O)[C@H]1CC[C@H]2[C@@H]3CCC4=CC(=O)CC[C@]4(C)[C@H]3CC[C@]12C [PROGESTERONE],–,–,log Pe [15]: -5.1
O=C1c2ccccc2C(=O)N1CCCNC1CCN(Cc2ccccc2F)CC1,4.98,4.64,–
Oc1ccc(CN2CCC(NCCCCCCn3ccc4ccccc43)CC2)cc1,5.75,–,inhibition [3]: < 60%
CC(C)NCC(O)COc1cccc2ccccc12 (stereo not drawn) [PROPRANOLOL],–,–,log Pe [15]: -3.5
c1ccc(CN2CCC(NCCCCCn3ccc4ccccc43)CC2)cc1,5.74,7.70,–
O=C1c2ccccc2C(=O)N1CCCCCCNC1CCN(Cc2ccccc2)CC1,4.89,4.34,–
COc1ccc(CN2CCC(NCCCCCCCCn3ccc4ccccc43)CC2)cc1,6.47,–,inhibition [3]: < 60%
